“And” between values parts separate entries of the source, which are not always exact repeats. Equal values may be shown once.
Experiments:
Human ASM cells = assay: EGF induced ASM proliferation ([3H]-thymidine incorporation); format: cell-based; conditions: for effect on EGF response (ASM proliferation): Mch 10 μM, atropine alone, DHEA-S in the presence or absence of Mch and atropine
Experimental: Human ASM cells were obtained from the distal trachea of transplant donors in compliance with the University of Pennsylvania's Institutional Review Board. Distal trachealis was dissected free of connective tissue and enzymatically digested to yield approximately 1×10^4 human ASM cells. These cells were then grown to confluence in 10% fetal bovine serum and quiesced in serum-free media containing 1% bovine serum albumin for 24 hours. […] After the initial incubation, cells were then exposed to [^3H]-thymidine and DNA synthesis was measured over 24 hours using thymidine incorporation. The cells were scraped and placed on filters which were then counted using a beta counter. All experiments were repeated in a minimum of three human ASM cell lines. All conditions per experiment were run with six replicates.

HT-29 SF cells [1] = assay: Reversal of DHEA effect on cell cycle; format: cell-based, human; conditions: 25 FM DHEA; supplemented medium; 48 and 72 hours
[2] = Particle size after jet milling or spray drying (Malvern Mastersizer X, light microscope); format: physicochemical; conditions: two batches
Experimental: Approximately 1 g sample was passed through the jet mill, once, and approximately 2 g sample were passed through the jet mill twice. […] The resulting solution was sonicated for 3 minutes and appeared fully dispersed. The dispersed solutions were tested on a Malvern Mastersizer X with a small volume sampler (SVS) attachment. One sample of dispersed material was tested 5 times. The median particle size or D (v, 0.5) of unmilled material was 52.56 μm and the % RSD (relative standard deviation) was 7.61 for the 5 values. The D (v, 0.5) for a single pass through the jet mill was 3.90 μm and the % RSD was 1.27, and the D (v, 0.5) from a double pass through the jet mill 3.25 μm and the % RSD was 3.10.
The solution was spray-dried with a B-191 Mini Spray-Drier (Buchi, Flawil, Switzerland) with an inlet temperature of 55° C., outlet temperature of 40° C., at 100% aspirator, at 10% pump, nitrogen flow at 40 mbar and spray flow at 600 units. The spray-dried product was suspended in hexane and Span85 surfactant added to reduce agglomeration. The dispersions were sonicated with cooling for 3-5 minutes for complete dispersion and the dispersed solutions tested on a Malvern Mastersizer X with a Small Volume Sampler (SVS) attachment. […] Visual examination by light microscope of the dispersions of each batch confirmed that spray drying produced small respirable size particles. […]

[3] = Short-term solution stability of DHEA-S nebulizer formulation; format: physicochemical; conditions: 10 mg/mL in 0.12% NaCl
Experimental: Aliquots of this solution are filled into clear glass vials and stored at RT (24-26° C.) and at 40° C. The samples are checked daily for DHEA-S content, DHEA content, and appearance. For each time point, duplicate samples are withdrawn and diluted from each vial. […] The study is stopped on day three. […] The solution should easily be stable for the day of reconstitution in a clinical trial. The following section describes the aerosol properties of this formulation.

[4] = Nebulizer studies (Pari LC Plus, by-pass collector and impactor); conditions: 0.12% NaCl
Experimental: The nebulizer is filled with 5 mL of solution and nebulization is continued until the output became visually insignificant (4½ to 5 min.). Nebulizer solutions are tested using a California Instruments AS-6 6-stage impactor with a USP throat. The impactor is run at 30 L/min for 8 s to collect a sample following one minute of nebulization time. At all other times during the experiment, the aerosol is drawn through the by-pass collector at approximately 33 L/min. The collection apparatus, nebulizer, and impactor are rinsed with mobile phase and assayed by HPLC. […] This volume is selected as the practical upper limit for use in a clinical study.

[5] = Solubility of DHEA-S in NaCl solutions; format: physicochemical; conditions: 20 mM Na+; Ksp 1316 mM^2; 15° C.
From the text: Inhalation of pure water can produce a cough stimulus. […] The temperature effect is weaker at high NaCl concentrations.

HT-29 SF cells [6] = assay: DHEA effect on cell growth; format: cell-based, human; conditions: 0, 12.5, 25, 50, or 200 μM; 0-72 hours

With CN1[C@@H]2CC[C@H]1C[C@@H](OC(=O)C(CO)c1ccccc1)C2 (some centres unmarked) [atropine] the “effect on Mch augmentation of EGF response” value (Human ASM cells; EGF plus 10 μM Mch) was “reverse the effects of Mch” and the “effect on EGF response (ASM proliferation)” value (“effect on EGF response” for short) (Human ASM cells) was “no effect on EGF response”.
For C[C@@](O)(CCO)CC(=O)O [MVA, mevalonic acid], the “prevention of DHEA-induced S phase depletion (G1 arrest)” value (HT-29 SF cells [1]) was “partially prevented this effect in the initial 48 hours but not after 72 hours”.
In the case of C[C@]12CC[C@H](OS(=O)(=O)[O-])CC1=CC[C@@H]1[C@@H]2CC[C@]2(C)C(=O)CC[C@@H]12.[Na+] [Anhydrous DHEA-S], the “mean particle size of spray dried material” value ([2]; Malvern Mastersizer X) is reported as 5.07±0.70 μm and 6.66±0.91 μm and the “mean particle size of spray dried material” value ([2]; visual examination by light microscope) is reported as 2.4 μm and 2.0 μm.
With “EGF: growth factor used to induce DNA synthesis in human ASM cells (NSDSECPLSHDGYCLHDGVCMYIEALDKYACNCVVGYIGERCQYRDLKWWELR; Epidermal growth factor; UniProt P01133 971-1023, looked up)” the “increase in ASM proliferation” value (Human ASM cells; EGF (1 ng/ml), thymidine incorporation) was 8 fold.
For C[C@]12CC[C@H](OS(=O)(=O)[O-])CC1=CC[C@@H]1[C@@H]2CC[C@]2(C)C(=O)CC[C@@H]12.[Na+] [DHEA-S, sodium dehydroepiandrostenone sulfate], the “solution appearance on storage” value ([3]; 40° C.) was “became cloudy after two days of storage”, the “solution appearance on storage” value ([3]; RT (24-26° C.)) was “slight precipitate is observed on the third day” and the “highest solution concentration for clinical trial formulation (no precipitate during nebulization)” value [4] was “approximately 7.5 mg/mL”. For the same compound, the “calculated DHEA-S solution concentration” value [5] was 27.5 mM and the “effect on EGF response” value (Human ASM cells) was “attenuate the EGF response”.
For CC(C)CCC[C@@H](C)[C@H]1CC[C@H]2[C@@H]3CC=C4C[C@@H](O)CC[C@]4(C)[C@H]3CC[C@]12C [CH, cholesterol], the “prevention of DHEA-induced S phase depletion (G1 arrest)” value (HT-29 SF cells [1]) was “very little effect at 48 hours and no effect at 72 hours”.
For C[C@]12CC[C@H](O)CC1=CC[C@@H]1[C@@H]2CC[C@]2(C)C(=O)CC[C@@H]12 [DHEA, 3β-hydroxyandrost-5-en-17-one], the “effect on growth of HT-29 SF cells” value (HT-29 SF cells [6]) was “time- and dose-dependent inhibition of growth”.
For CC(=O)OC(C)C[N+](C)(C)C (centres unmarked), the “effect on EGF response” value (Human ASM cells) was “further augmented”.
